Test results published in patent publication US10046032B2, “Use of insulin for promoting gastric emptying” (NUTRINIA LTD., priority 2016, dated 2018).
“And” between values parts separate entries of the source, which are not always exact repeats. Equal entries are not always repeated.

Key:
[1] = system: preterm infants; experiment: Twin pair study: days until gastric residuals fall, insulin-enriched preterm formula vs placebo; type: in vivo, human; details: twin pairs
Source text: (§1) Evaluation of gastric residuals (GR) is used in neonatal intensive care units to measure the volume of milk remaining in the stomach at a variable time after a feeding, and as an indicator of gastric emptying (GE).
(§2) 33 preterm infants, aged up to 7 days old, born between 26-33 weeks of pregnancy, weighing over 750 grams, who are free from high index suspicion for infection showing stable condition were enrolled into this study.
(§3) The study products included the insulin composition disclosed herein and placebo. The insulin composition is intended to be mixed with 90 ml ready to feed (RTF) preterm infant formula (manufacturer: Nestle Germany, importer: Materna Laboratories, Israel). Once the insulin is added to the formula, the formula has the concentration of 400 μU Insulin/ml formula.
(§4) Standard feeding bottles and nipples were used.
(§5) The gastric residual amount was measured after every meal.
Twin pairs, treated with insulin as described above, were examined for number of days until gastric residual measurements reached less than 0 ml/kg body weight (FIG. 2 and Table 1) or 2 ml/kg (FIG. 1 and Table 2). […] The enteral administration of insulin strikingly provided a statistically significant improvement in the number of days until gastric residuals reached […] body weight, or <2 ml/kg body weight, relative to control treated infants.

[2] = system: preterm infants; experiment: Singleton study: days until gastric residuals fall, insulin-enriched preterm formula vs placebo; type: in vivo, human; details: singletons
Source text: as §1, §2, §3, §4, §5
Singletons were examined for number of days until gastric residual measurements reached less than 2 ml/kg body weight (FIG. 3) and until no gastric residuals were emitted (Table 3).

[3] = system: preterm infants
Experimental: A Multi-center, two arms, randomized, double-blinded placebo controlled study was conducted to evaluate the effect of insulin-enriched infant formula on preterm infants. The insulin was given within a liquid infant formula with insulin concentration of 400 μU/ml. The study primary goal was to determine whether insulin supplement within the basic preterm oral formula enhances gastric emptying. The gastric emptying was evaluated by the reduction in the amount of gastric residual of the preterm infants.
The infants were randomly assigned to one of two treatment groups: the study product containing insulin as a test group and Placebo supplement as a control group. The parents, the medical team treating the infants and the study monitor were blinded to the treatment arm. From study day 1, the infants in the test group received insulin mixed with the ready to feed (RTF) preterm Materna formula and the control group received a placebo supplement mixed with the same RTF preterm Materna formula.
The insulin composition was used according to study definitions and feeding protocol only. Formula administration was begun at study day 1 and continued throughout the following 28 days or discharge day if achieved prior to day 28. […]

[4] = insulin 400 μU/ml in formula, up to 28 days

How did the “Time to reach gastric residuals of less than 2 ml/kg or 0 ml/kg versus control twin” value ([1]; FIG. 1 (p=0.031) and FIG. 2 (p=0.074)) turn out when Human insulin was run?
The value was “earlier than their control infant twin in most twin pairs”.

And the “Number of days until gastric residuals reached 0 ml/Kg body weight, Median” value [1, 4]?
Its value is 0.0 days.

And the “Number of days until gastric residuals reached < 2 ml/Kg body weight, Median” value [1, 4]?
Its value is 0 days.

What about the “Number of days until gastric residuals reached < 2 ml/Kg body weight, Average” value ([1]; insulin 400 μU/ml in formula, up to 28 days, P = 0.031 vs control) of the same substance?
Its value is 3.8 days.

And the “Number of days until gastric residuals reached 0 ml/Kg body weight, Average” value ([1]; insulin 400 μU/ml in formula, up to 28 days, P = 0.074 vs control)?
The value was 4.1 days.

And the “Time to reach gastric residuals of less than 2 ml/kg versus control” value ([2]; FIG. 3, P=0.121)?
The value was “earlier than the control”.

What about the “Time to reach no gastric residuals (0 ml/kg) versus control” value ([2]; Table 3, P=0.021) of the same substance?
The value was “earlier than their control singletons”.

What about the “Number of days until no gastric residuals are emitted, Median (range)” value ([2]; insulin 400 μU/ml in formula, P=0.021 vs control) of the same substance?
The value was 0.0 (0-2) days.

What about the “Number of days until no gastric residuals are emitted, individual infant” value ([2]; treatment infants no. 1-6, insulin 400 μU/ml in formula) of the same substance?
The value was 0 days (5×) and 2 days.

And the “Deleterious effects resulting from the insulin administration” value ([3]; low birth weight / preterm infants, enteral insulin)?
The value was “No deleterious effects”.

What about the “Effect on blood glucose or insulin levels” value ([3]; orally administered to preterm infants) of the same substance?
The value was “without affecting the blood glucose or insulin levels”.
